Measured values taken from patent publication US12398154B2, “Azaquinazoline pan-KRas inhibitors” (Mirati Therapeutics, Inc., priority 2020, dated 2025).

Assays:
Assay in all cases: biochemical
KRas G12V = KRas G12V (Homo sapiens, UniProt P01116, G12V);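 note: KRas binding measured by TR-FRET displacement at room temperature, IC50 fitted from percent of control values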
Protocol: (§1) The ability of a compound to bind to KRas was measured using a TR-FRET displacement assay. […] After a 60-minute incubation at room temperature, the reaction was measured using a BMG LABTECH CLARIO star Plus via TR-FRET. […] The POC values were fit to a 4-parameter IC50 equation and the IC50 value reported.

KRas G12S = KRas G12S (Homo sapiens, UniProt P01116, G12S);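 note: TR-FRET displacement binding to KRas, read after one hour incubation at room temperature, IC50 from four-parameter fit of percent of control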
Protocol: as §1

KRas G12A = KRas G12A (Homo sapiens, UniProt P01116, G12A);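 note: binding to KRas measured by TR-FRET displacement after one hour at room temperature, IC50 from a four-parameter fit of percent-of-control values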
Protocol: as §1

KRas WT = KRas WT (Homo sapiens, UniProt P01116);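 note: binding to KRas read as TR-FRET displacement after a one-hour room-temperature incubation, IC50 derived from percent-of-control values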
Protocol: as §1

KRas G12C = KRas G12C (Homo sapiens, UniProt P01116, G12C);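 note: binding to KRas assessed by TR-FRET displacement after one hour incubation at room temperature, potency fitted from percent-of-control values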
Protocol: as §1

KRas G12D = KRas G12D (Homo sapiens, UniProt P01116, G12D);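 note: TR-FRET displacement binding assay on KRas, read after a one-hour incubation at room temperature, IC50 fitted from percent-of-control values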
Protocol: as §1

KRas G12R = KRas G12R (Homo sapiens, UniProt P01116, G12R);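 note: TR-FRET displacement assay of compound binding to KRas, read after one hour at room temperature, potency from a four-parameter fit of percent-of-control values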
Chain of KRas G12R (P01116 1-169 isoform P01116-2 G12R): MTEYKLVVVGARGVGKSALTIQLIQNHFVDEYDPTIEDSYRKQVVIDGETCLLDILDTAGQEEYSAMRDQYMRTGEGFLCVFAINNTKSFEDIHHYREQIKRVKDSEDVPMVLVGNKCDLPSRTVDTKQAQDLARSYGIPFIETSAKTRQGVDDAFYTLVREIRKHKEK
Protocol: as §1

Chain of KRas G12S (P01116 1-169 isoform P01116-2 G12S): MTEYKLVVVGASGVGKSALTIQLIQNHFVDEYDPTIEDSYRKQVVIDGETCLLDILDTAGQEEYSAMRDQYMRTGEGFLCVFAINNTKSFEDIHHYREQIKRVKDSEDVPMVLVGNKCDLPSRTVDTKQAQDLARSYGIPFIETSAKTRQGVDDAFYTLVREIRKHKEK
Chain of KRas G12A (P01116 1-169 isoform P01116-2 G12A): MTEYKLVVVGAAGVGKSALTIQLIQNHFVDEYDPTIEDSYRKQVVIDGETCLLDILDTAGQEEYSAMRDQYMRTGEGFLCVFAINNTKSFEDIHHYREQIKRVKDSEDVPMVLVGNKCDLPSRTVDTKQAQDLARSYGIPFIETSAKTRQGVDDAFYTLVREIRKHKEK
Chain of KRas G12D (P01116 1-169 isoform P01116-2 G12D): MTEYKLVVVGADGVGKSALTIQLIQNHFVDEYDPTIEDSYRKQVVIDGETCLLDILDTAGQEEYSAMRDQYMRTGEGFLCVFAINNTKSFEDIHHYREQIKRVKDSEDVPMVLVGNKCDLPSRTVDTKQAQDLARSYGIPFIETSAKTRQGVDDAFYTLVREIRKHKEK
Chain of KRas G12V (P01116 1-169 isoform P01116-2 G12V): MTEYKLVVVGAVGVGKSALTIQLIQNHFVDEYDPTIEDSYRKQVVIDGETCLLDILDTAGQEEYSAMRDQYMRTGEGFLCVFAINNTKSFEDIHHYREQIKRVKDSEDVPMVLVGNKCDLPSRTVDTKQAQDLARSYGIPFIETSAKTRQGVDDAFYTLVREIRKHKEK
Chain of KRas G12C (P01116 1-169 isoform P01116-2 G12C): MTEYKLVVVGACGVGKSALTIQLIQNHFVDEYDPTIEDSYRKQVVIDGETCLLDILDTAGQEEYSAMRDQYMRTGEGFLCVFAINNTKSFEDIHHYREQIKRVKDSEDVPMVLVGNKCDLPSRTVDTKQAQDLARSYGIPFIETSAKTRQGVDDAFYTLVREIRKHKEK
Chain of KRas WT (P01116 1-169 isoform P01116-2): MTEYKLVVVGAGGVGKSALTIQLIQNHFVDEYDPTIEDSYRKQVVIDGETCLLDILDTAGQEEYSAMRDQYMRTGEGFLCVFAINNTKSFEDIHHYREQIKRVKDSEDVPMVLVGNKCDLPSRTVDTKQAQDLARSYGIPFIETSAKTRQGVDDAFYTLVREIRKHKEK

Row | SMILES | IC50 (KRas G12V) [nM] | IC50 (KRas G12S) [nM] | IC50 (KRas G12A) [nM] | IC50 (KRas WT) [nM] | IC50 (KRas G12C) [nM] | IC50 (KRas G12D) [nM] | IC50 (KRas G12R) [nM]
1 | O=C1NC(=O)C2(CCCCN(c3nc(OCC45CCCN4CCC5)nc4c(F)c(-c5cccc6cccc(F)c56)ncc34)C2)N1 (centres unmarked) [Example 267, 7-(8-fluoro-7-(8-fluoronaphthalen-1-yl)-2-((hexahydro-1H-pyrrolizin-7a-yl)methoxy)pyrido[4,3-d]pyrimidin-4-yl)-1,3,7-triazaspiro[4.6]undecane-2,4-dione] | 1710 | 2070 | 2500 | 1560 | 2250 | 4370 | 1720
2 | O=C1CC2(CCCN(c3nc(OCC45CCCN4CCC5)nc4c(F)c(-c5cccc6cccc(Cl)c56)ncc34)C2)N1 (centres unmarked) [Example 283, 6-(7-(8-chloronaphthalen-1-yl)-8-fluoro-2-((tetrahydro-1H-pyrrolizin-7a(5H)-yl)methoxy)pyrido[4,3-d]pyrimidin-4-yl)-1,6-diazaspiro[3.5]nonan-2-one] | 90 | 91 | 97 | 113 | 77 | 97 | 129
3 | O=C1NCC2(CCCN(c3nc(OCC45CCCN4CCC5)nc4c(F)c(-c5cccc6cccc(Cl)c56)ncc34)C2)N1 (centres unmarked) [Example 284, 7-(7-(8-chloronaphthalen-1-yl)-8-fluoro-2-((hexahydro-1H-pyrrolizin-7a-yl)methoxy)pyrido[4,3-d]pyrimidin-4-yl)-1,3,7-triazaspiro[4.5]decan-2-one] | 41 | 45 | 46 | 46 | 44 | 38 | 58
4 | CCc1cccc2cccc(-c3ncc4c(NCc5cn[nH]c5)nc(OCC56CCCN5CCC6)nc4c3F)c12 [Example 287, N-((1H-pyrazol-4-yl)methyl)-7-(8-ethylnaphthalen-1-yl)-8-fluoro-2-((hexahydro-1H-pyrrolizin-7a-yl)methoxy)pyrido[4,3-d]pyrimidin-4-amine] | 225 | 590 | 648 | 838 | 321 | 8170 | 225
5 | CCc1cccc2cccc(-c3ncc4c(N5CCCC6(CC(=O)N6)C5)nc(OCC56CCCN5CCC6)nc4c3F)c12 (centres unmarked) [Example 288, 6-(7-(8-ethylnaphthalen-1-yl)-8-fluoro-2-((hexahydro-1H-pyrrolizin-7a-yl)methoxy)pyrido[4,3-d]pyrimidin-4-yl)-1,6-diazaspiro[3.5]nonan-2-one] | 67 | 82 | 95 | 89 | 68 | 53 | 78
6 | CCc1cccc2cccc(-c3ncc4c(N5CCOCC(CO)C5)nc(OCC56CCCN5CCC6)nc4c3F)c12 (centres unmarked) [Example 289, (4-(7-(8-ethylnaphthalen-1-yl)-8-fluoro-2-((hexahydro-1H-pyrrolizin-7a-yl)methoxy)pyrido[4,3-d]pyrimidin-4-yl)-1,4-oxazepan-6-yl)methanol] | 807 | 520 | 607 | 818 | 407 | 5610 | 754

The remaining lines, values ahead:

Row | IC50 (KRas G12V) [nM] | IC50 (KRas G12S) [nM] | IC50 (KRas G12A) [nM] | IC50 (KRas WT) [nM] | IC50 (KRas G12C) [nM] | IC50 (KRas G12D) [nM] | IC50 (KRas G12R) [nM] | SMILES
7 | 1000 | 725 | 1050 | 1060 | 608 | 1910 | 1060 | OCC1CN(c2nc(OCC34CCCN3CCC4)nc3c(F)c(-c4cccc5cccc(F)c45)ncc23)CCCO1 (centres unmarked) [Example 269, (4-(8-fluoro-7-(8-fluoronaphthalen-1-yl)-2-((hexahydro-1H-pyrrolizin-7a-yl)methoxy)pyrido[4,3-d]pyrimidin-4-yl)-1,4-oxazepan-2-yl)methanol]
8 | 130 | 132 | 138 | 116 | 141 | 194 | 120 | O=C1NC(=O)C2(COCCN(c3nc(OCC45CCCN4CCC5)nc4c(F)c(-c5cccc6cccc(F)c56)ncc34)C2)N1 (centres unmarked) [Example 272, 10-(8-fluoro-7-(8-fluoronaphthalen-1-yl)-2-((hexahydro-1H-pyrrolizin-7a-yl)methoxy)pyrido[4,3-d]pyrimidin-4-yl)-7-oxa-1,3,10-triazaspiro[4.6]undecane-2,4-dione]
9 | ≥ 100000 | ≥ 100000 | ≥ 100000 | ≥ 100000 | 9860 | ≥ 100000 | ≥ 100000 | O=C1C[C@@]2(CCN(c3nc(OCC45CCCN4CCC5)nc4c(F)c(-c5cccc6cccc(F)c56)ncc34)C2)CN1 [Example 280, (S)-7-(8-fluoro-7-(8-fluoronaphthalen-1-yl)-2-((hexahydro-1H-pyrrolizin-7a-yl)methoxy)pyrido[4,3-d]pyrimidin-4-yl)-2,7-diazaspiro[4.4]nonan-3-one]
10 | 170 | 67 | 59 | 61 | 75 | 213 | 81 | NS(=O)(=O)CC1CCCN(c2nc(OCC34CCCN3CCC4)nc3c(F)c(-c4cccc5cccc(Cl)c45)ncc23)C1 (centres unmarked) [Example 281, 1-(1-(7-(8-chloronaphthalen-1-yl)-8-fluoro-2-((tetrahydro-1H-pyrrolizin-7a(5H)-yl)methoxy)pyrido[4,3-d]pyrimidin-4-yl)piperidin-3-yl)methanesulfonamide]
11 | 15 | 15 | 16 | 15 | 16 | 30 | 18 | O=C1NC(=O)C2(CCCN(c3nc(OCC45CCCN4CCC5)nc4c(F)c(-c5cccc6cccc(Cl)c56)ncc34)C2)N1 (centres unmarked) [Example 282, 7-(7-(8-chloronaphthalen-1-yl)-8-fluoro-2-((hexahydro-1H-pyrrolizin-7a-yl)methoxy)pyrido[4,3-d]pyrimidin-4-yl)-1,3,7-triazaspiro[4.5]decane-2,4-dione]
12 | 864 | 359 | 367 | 323 | 426 | 976 | 350 | CCc1cccc2cccc(-c3ncc4c(N5CCCC(CS(N)(=O)=O)C5)nc(OCC56CCCN5CCC6)nc4c3F)c12 (centres unmarked) [Example 285, 1-(1-(7-(8-ethylnaphthalen-1-yl)-8-fluoro-2-((tetrahydro-1H-pyrrolizin-7a(5H)-yl)methoxy)pyrido[4,3-d]pyrimidin-4-yl)piperidin-3-yl)methanesulfonamide]
13 | 521 | 407 | 370 | 608 | 410 | 313 | 674 | CCc1cccc2cccc(-c3ncc4c(N5CCCC6(CNC(=O)C6)C5)nc(OCC56CCCN5CCC6)nc4c3F)c12 (centres unmarked) [Example 286, 7-(7-(8-ethylnaphthalen-1-yl)-8-fluoro-2-((hexahydro-1H-pyrrolizin-7a-yl)methoxy)pyrido[4,3-d]pyrimidin-4-yl)-2,7-diazaspiro[4.5]decan-3-one]
14 | 171 | 147 | 183 | 276 | 207 | 582 | 176 | CCc1cccc2cccc(-c3ncc4c(N5CC6CC(O)C(C6)C5)nc(OCC56CCCN5CCC6)nc4c3F)c12 (centres unmarked) [Example 290, 3-(7-(8-ethylnaphthalen-1-yl)-8-fluoro-2-((hexahydro-1H-pyrrolizin-7a-yl)methoxy)pyrido[4,3-d]pyrimidin-4-yl)-3-azabicyclo[3,2,1]octan-6-ol]
